Active and inactive are the calls of the source.
Experiments:
[1] = Trypanosoma cruzi growth suppression in host cells – NIH3T3 host cells, beta-gal luminescence, confirmation (AID 2044); format: functional, cell-based;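 note: intracellular parasites grown in NIH/3T3 mouse fibroblasts as host cells; luminescent beta-galactosidase reporter signal from transgenic T. cruzi replicating inside host cells; inhibitors lower the luminescence signal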
Caspase-3 [2] = target: T1, Caspase-3 (Homo sapiens, UniProt P42574); format: functional
T1 sequence (P42574 whole entry): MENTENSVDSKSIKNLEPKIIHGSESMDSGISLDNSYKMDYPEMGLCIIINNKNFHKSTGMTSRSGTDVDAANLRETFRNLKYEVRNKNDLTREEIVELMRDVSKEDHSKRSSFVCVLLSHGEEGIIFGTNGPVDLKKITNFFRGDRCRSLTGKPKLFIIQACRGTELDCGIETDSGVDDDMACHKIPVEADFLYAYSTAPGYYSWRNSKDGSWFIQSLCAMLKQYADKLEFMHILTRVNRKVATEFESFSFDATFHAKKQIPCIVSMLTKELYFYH

[3] = target: T2, Sentrin-specific protease 7 (Homo sapiens, UniProt Q9BQF6); format: functional;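 note: Luminescence-based dose-response confirmation of ultra-high-throughput screening hits, measuring inhibition of SENP7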
T2 sequence (Q9BQF6 whole entry): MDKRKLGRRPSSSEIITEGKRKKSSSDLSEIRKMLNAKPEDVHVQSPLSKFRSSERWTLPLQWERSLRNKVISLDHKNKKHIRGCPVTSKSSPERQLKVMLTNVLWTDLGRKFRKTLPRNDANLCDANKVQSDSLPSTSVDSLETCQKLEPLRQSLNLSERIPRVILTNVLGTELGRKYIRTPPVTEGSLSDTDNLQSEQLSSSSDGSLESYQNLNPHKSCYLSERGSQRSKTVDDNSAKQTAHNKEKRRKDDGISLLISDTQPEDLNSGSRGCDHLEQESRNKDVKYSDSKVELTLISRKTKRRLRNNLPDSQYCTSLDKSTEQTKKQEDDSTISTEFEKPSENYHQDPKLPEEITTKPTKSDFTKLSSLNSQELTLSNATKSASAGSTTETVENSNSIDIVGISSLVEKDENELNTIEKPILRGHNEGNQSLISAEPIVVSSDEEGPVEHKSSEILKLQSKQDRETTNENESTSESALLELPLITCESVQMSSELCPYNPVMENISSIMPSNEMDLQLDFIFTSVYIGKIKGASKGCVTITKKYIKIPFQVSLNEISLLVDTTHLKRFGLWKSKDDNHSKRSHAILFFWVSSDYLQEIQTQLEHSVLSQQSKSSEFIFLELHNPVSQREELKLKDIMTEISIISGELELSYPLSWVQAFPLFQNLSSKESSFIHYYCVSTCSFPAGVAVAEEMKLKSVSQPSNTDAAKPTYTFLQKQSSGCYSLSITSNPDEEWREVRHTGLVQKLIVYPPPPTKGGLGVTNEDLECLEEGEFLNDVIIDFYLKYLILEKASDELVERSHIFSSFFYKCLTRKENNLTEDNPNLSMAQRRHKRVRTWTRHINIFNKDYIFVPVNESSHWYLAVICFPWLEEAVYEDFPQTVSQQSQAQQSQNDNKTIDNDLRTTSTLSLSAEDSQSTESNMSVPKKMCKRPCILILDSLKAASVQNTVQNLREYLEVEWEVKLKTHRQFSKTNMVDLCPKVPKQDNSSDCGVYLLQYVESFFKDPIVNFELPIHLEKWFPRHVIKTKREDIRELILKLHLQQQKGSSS

Caspase-8 = Caspase-8 (Homo sapiens, UniProt Q14790); test: inhibitors of purified CASP8 protease – biochemical, Z-IETD-R110 fluorescence, cherry-picked samples, selectivity assay for caspase-6 inhibitor project, dose response (AID 743294)
[4] = target: Protein kinase C theta type (Homo sapiens, UniProt Q04759); test: Navigating the Kinome. Panel member name: PRKCQ; format: functional
[5] = target: Megakaryocyte-associated tyrosine-protein kinase (Homo sapiens, UniProt P42679); format: functional;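 note: affinity measured as one member of a kinase panel (Navigating the Kinome) against MATK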
Activin receptor type-1 = Activin receptor type-1 (Homo sapiens, UniProt Q04771); test: Navigating the Kinome. Panel member name: ACVR1; format: functional
[6] = target: Protein-tyrosine kinase 2-beta (Homo sapiens, UniProt Q14289); format: functional
[7] = target: Mitogen-activated protein kinase 13 (Homo sapiens, UniProt O15264); format: functional
[8] = target: Protein kinase C gamma type (Homo sapiens, UniProt P05129); format: functional
[9] = target: Tyrosine-protein kinase Srms (Homo sapiens, UniProt Q9H3Y6); format: functional;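 note: SRMS measured as one member of a kinome-wide kinase profiling panel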
[10] = target: MAP kinase-activated protein kinase 3 (Homo sapiens, UniProt Q16644); format: functional;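 note: value comes from a kinome-wide profiling panel in which MAPKAPK3 is one of the panel members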
[11] = target: MAP kinase-interacting serine/threonine-protein kinase 2 (Homo sapiens, UniProt Q9HBH9); format: functional
[12] = target: Vascular endothelial growth factor receptor 2 (Homo sapiens, UniProt P35968); format: functional
Misshapen-like kinase 1 = Misshapen-like kinase 1 (Homo sapiens, UniProt Q8N4C8); format: functional;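 note: kinome panel screen with MINK as the panel member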
[13] = target: Serine/threonine-protein kinase Nek4 (Homo sapiens, UniProt P51957); format: functional
[14] = target: Protein kinase C iota type (Homo sapiens, UniProt P41743); format: functional;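 note: measured within a kinome-wide kinase panel, PRKCI as panel member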
[15] = target: Dual specificity tyrosine-phosphorylation-regulated kinase 1B (Homo sapiens, UniProt Q9Y463); test: Navigating the Kinome. Panel member name: DYRK1B; format: functional
[16] = target: Maternal embryonic leucine zipper kinase (Homo sapiens, UniProt Q14680); format: functional
[17] = target: Leucine-rich repeat serine/threonine-protein kinase 2 (Homo sapiens, UniProt Q5S007); format: functional;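 note: value from a broad kinome-wide panel profiling study in which LRRK2 was one of the kinases tested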
Aurora kinase B = Aurora kinase B (Homo sapiens, UniProt Q96GD4); format: functional
[18] = target: Vascular endothelial growth factor receptor 3 (Homo sapiens, UniProt P35916); format: functional;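 note: value from a kinome-wide profiling panel, with FLT4 as the panel member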
[19] = target: Cyclin-dependent kinase 7 (Homo sapiens, UniProt P50613); format: functional;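 note: value comes from a kinome-wide kinase profiling panel in which CDK7 is one member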
[20] = target: Lymphokine-activated killer T-cell-originated protein kinase (Homo sapiens, UniProt Q96KB5); format: functional;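 note: value comes from a kinase panel screen in which TOPK was one of the panel members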
[21] = target: Mitogen-activated protein kinase kinase kinase kinase 4 (Homo sapiens, UniProt O95819); format: functional
[22] = target: Serine/threonine-protein kinase MRCK alpha (Homo sapiens, UniProt Q5VT25); format: functional
[23] = target: Photoreceptor-specific nuclear receptor (Homo sapiens, UniProt Q9Y5X4); format: functional;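 note: potency for compounds that break the NR2E3 corepressor complex and count as activators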
Caspase-3 [24] = target: T1, Caspase-3; test: Dose-response confirmation of uHTS inhibitor hits of Sentrin-Specific Protease 8 in a Caspase-3 Fluorescence assay.; format: functional

Sequence of Dual specificity tyrosine-phosphorylation-regulated kinase 1B (Q9Y463 whole entry): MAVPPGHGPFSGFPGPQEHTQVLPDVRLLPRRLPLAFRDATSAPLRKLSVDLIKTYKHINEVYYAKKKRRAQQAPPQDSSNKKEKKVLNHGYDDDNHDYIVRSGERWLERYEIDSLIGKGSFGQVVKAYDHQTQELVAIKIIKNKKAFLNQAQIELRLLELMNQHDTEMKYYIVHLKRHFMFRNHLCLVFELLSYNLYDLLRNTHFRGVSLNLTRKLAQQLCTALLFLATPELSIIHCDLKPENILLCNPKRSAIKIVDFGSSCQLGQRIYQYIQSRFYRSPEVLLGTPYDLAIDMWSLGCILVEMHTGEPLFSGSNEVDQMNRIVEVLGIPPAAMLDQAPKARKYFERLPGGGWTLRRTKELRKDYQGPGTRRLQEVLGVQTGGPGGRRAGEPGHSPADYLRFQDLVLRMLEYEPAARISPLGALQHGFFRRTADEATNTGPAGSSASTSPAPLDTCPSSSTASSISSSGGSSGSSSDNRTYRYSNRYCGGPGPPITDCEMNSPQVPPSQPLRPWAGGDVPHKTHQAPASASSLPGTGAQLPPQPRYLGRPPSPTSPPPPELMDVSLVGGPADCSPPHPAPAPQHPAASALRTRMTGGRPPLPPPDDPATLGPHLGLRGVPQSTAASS
Sequence of Serine/threonine-protein kinase MRCK alpha (Q5VT25 whole entry): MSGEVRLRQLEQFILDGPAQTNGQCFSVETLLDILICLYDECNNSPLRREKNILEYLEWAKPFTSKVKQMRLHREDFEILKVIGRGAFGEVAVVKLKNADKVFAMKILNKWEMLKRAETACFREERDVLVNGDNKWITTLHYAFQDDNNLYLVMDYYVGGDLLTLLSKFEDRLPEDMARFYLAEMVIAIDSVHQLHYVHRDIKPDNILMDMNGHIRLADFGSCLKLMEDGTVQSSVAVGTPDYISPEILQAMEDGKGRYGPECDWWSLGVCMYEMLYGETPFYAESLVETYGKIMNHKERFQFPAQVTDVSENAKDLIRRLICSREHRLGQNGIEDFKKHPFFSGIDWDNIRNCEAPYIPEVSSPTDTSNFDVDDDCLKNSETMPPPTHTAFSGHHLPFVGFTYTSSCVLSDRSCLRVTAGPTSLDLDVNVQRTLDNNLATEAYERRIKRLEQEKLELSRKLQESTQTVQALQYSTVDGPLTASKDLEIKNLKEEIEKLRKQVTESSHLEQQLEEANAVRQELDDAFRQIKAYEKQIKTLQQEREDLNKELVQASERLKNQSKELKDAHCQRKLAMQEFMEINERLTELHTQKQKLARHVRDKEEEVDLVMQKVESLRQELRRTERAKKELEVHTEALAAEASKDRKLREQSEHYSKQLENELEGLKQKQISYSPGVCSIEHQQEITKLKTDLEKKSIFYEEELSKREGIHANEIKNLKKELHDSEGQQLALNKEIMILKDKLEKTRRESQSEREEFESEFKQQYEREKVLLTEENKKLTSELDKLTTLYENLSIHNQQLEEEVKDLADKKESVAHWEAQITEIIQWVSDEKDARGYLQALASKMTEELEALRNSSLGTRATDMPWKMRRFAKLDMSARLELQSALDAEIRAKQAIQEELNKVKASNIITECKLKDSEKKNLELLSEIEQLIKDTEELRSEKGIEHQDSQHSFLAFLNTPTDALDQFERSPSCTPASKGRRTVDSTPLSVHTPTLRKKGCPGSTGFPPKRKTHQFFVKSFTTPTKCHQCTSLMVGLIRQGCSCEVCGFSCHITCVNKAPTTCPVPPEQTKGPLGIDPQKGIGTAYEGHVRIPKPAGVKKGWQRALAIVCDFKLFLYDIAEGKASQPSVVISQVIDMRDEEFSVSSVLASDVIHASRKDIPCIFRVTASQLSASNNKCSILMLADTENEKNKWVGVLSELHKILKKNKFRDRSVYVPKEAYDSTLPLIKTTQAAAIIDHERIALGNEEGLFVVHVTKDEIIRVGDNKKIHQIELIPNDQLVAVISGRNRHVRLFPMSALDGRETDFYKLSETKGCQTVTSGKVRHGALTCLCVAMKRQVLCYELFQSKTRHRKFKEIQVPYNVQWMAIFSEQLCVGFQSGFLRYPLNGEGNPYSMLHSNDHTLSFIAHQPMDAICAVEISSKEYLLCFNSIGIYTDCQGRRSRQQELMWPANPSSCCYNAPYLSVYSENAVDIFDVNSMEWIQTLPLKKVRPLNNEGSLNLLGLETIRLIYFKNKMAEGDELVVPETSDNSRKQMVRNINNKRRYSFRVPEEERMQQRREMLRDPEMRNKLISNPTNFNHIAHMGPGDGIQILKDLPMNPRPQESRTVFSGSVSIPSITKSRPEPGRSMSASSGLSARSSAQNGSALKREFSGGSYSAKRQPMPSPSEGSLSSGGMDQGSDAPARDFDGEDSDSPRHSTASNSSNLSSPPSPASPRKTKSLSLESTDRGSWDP
Sequence of Leucine-rich repeat serine/threonine-protein kinase 2 (Q5S007 whole entry): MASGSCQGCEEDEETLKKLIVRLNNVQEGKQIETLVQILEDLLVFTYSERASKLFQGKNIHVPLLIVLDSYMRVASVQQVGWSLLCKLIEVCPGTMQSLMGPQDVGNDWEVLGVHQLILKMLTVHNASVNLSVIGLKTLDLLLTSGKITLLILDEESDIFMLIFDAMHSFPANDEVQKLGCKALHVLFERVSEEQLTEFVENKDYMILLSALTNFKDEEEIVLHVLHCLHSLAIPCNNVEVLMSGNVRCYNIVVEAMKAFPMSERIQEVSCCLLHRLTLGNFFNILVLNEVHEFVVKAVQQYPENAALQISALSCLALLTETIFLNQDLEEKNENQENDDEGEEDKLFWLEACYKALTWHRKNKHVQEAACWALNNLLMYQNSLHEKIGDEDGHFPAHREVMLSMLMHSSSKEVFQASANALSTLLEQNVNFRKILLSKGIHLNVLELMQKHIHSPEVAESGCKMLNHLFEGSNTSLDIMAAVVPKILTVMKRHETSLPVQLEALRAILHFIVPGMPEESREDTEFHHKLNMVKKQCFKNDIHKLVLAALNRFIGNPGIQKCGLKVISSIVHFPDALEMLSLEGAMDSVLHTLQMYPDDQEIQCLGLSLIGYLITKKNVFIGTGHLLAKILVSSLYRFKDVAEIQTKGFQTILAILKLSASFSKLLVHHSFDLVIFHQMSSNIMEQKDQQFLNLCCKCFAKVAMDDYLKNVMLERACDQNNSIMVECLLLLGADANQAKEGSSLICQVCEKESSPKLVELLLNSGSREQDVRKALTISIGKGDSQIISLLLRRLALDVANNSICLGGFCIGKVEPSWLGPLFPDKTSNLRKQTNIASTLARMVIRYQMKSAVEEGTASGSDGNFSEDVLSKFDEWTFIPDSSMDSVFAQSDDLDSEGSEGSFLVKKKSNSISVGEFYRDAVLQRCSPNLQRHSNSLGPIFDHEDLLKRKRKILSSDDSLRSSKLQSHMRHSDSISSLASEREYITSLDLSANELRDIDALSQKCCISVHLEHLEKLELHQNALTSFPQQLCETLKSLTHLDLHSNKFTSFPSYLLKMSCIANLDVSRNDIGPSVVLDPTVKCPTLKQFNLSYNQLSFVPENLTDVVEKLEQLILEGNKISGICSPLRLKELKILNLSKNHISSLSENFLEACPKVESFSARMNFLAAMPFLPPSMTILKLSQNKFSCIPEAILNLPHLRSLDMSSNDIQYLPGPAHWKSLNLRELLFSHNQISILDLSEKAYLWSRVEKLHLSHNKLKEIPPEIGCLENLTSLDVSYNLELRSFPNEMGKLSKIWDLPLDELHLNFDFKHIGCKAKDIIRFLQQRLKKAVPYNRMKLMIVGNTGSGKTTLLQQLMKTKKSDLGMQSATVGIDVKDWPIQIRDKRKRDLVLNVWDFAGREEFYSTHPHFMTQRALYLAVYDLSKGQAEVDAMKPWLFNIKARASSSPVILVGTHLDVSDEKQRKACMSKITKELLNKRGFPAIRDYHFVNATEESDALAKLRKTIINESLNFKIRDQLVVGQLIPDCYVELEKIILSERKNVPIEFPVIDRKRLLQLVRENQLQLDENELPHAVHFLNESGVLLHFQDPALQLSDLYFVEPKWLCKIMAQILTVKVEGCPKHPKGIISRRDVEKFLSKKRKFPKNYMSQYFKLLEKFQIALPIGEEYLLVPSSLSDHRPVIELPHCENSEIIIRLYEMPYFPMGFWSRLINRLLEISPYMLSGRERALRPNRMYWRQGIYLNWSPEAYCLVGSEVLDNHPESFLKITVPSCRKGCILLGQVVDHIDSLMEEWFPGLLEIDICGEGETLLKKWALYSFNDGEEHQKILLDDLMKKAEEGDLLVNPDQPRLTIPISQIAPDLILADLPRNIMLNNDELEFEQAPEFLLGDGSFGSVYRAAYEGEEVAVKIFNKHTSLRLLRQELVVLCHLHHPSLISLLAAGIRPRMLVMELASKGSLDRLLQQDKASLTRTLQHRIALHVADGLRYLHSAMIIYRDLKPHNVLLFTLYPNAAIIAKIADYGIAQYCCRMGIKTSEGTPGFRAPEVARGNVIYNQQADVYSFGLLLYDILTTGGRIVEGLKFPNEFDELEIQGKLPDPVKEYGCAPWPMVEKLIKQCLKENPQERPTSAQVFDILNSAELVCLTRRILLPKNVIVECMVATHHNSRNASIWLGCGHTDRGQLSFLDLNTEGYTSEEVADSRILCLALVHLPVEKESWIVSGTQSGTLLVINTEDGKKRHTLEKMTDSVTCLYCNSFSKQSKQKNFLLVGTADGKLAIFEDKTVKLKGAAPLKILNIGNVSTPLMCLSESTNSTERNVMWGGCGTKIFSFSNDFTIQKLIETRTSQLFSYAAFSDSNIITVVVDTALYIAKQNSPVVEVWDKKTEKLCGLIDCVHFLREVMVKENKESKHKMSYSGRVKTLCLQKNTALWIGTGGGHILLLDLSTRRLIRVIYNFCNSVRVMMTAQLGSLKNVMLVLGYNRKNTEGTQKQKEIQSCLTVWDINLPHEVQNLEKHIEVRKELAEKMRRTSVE

For `Cc1c(NC(=O)C(C)OC(=O)c2ccc([N+](=O)[O-])s2)c(=O)n(-c2ccccc2)n1C` (stereo not drawn), the EC50 [1] was 1.59 µM (active), the IC50 (Caspase-3 [2]) was 13.6 µM (active) and the IC50 [3] was 10.4 µM (active). For the same compound, the AC50 (Caspase-8) was 22.8 µM (active).

With `CC(N)C1CCC(C(=O)Nc2ccnc3[nH]ccc23)CC1` (stereo not drawn) the Ki [4] was 0.00794 µM (active), the Ki [5] was > 2 µM (inactive) and the Ki (Activin receptor type-1) was 1 µM (active). For the same compound, the Ki [6] was > 1.58 µM (inactive), the Ki [7] was > 7.94 µM (inactive) and the Ki [8] was 2.51 µM (active). The Ki [9] was > 1.58 µM (inactive), the Ki [10] was > 10 µM (inactive) and the Ki [11] was 2 µM (active). For the same compound, the Ki [12] was > 5.01 µM (inactive), the Ki (Misshapen-like kinase 1) was 3.16 µM (active) and the Ki [13] was > 6.31 µM (inactive). The Ki [14] was 3.98 µM (active), the Ki [15] was 0.158 µM (active) and the Ki [16] was > 1.58 µM (inactive). The Ki [17] was 0.02 µM (active), the Ki (Aurora kinase B) was 1 µM (active) and the Ki [18] was > 6.31 µM (inactive). The Ki [19] was 1 µM (active), the Ki [20] was 5.01 µM (active) and the Ki [21] was > 2.51 µM (inactive). The Ki [22] was 3.98 µM (active).

In the case of `COc1cc(Br)c(C(=O)c2nccc3cc(OC)c(OC)cc23)cc1OC`, the IC50 [23] is reported as > 39.8 µM (not active) and the IC50 (Caspase-3 [24]) is reported as 0.407 µM (active).
